In PubChem BioAssay (NCI):
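96-well plates; 48 h exposure; 5 concentrations. Endpoints by linear interpolation between flanking doses. Not reached: highest tested concentration assigned. TGI: concentration producing complete growth inhibition.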

What was measured:
Assay in all cases: DTP human tumour cell line panel, 48 h
786-0 renal = system: 786-0 renal
ACHN renal = system: ACHN renal
SF-268 CNS = system: SF-268 CNS
UACC-62 melanoma = system: UACC-62 melanoma
HOP-18 NSCLC = system: HOP-18 NSCLC
RXF-631 renal = system: RXF-631 renal
SF-539 CNS = system: SF-539 CNS
SW-620 colon = system: SW-620 colon
UO-31 renal = system: UO-31 renal
HOP-62 NSCLC = system: HOP-62 NSCLC
DLD-1 colon = system: DLD-1 colon
SNB-75 CNS = system: SNB-75 CNS
SR leukemia = system: SR leukemia
DMS 114 small cell lung = system: DMS 114 small cell lung
CCRF-CEM leukemia = system: CCRF-CEM leukemia
HCC-2998 colon = system: HCC-2998 colon
HCT-116 colon = system: HCT-116 colon
HL-60(TB) leukemia = system: HL-60(TB) leukemia
OVCAR-3 ovarian = system: OVCAR-3 ovarian
TK-10 renal = system: TK-10 renal
M19-MEL melanoma = system: M19-MEL melanoma
OVCAR-4 ovarian = system: OVCAR-4 ovarian
KM20L2 colon = system: KM20L2 colon
SNB-78 CNS = system: SNB-78 CNS
OVCAR-8 ovarian = system: OVCAR-8 ovarian
XF 498 CNS = system: XF 498 CNS
HT29 colon = system: HT29 colon
SF-295 CNS = system: SF-295 CNS
NCI-H23 lung = system: NCI-H23 lung
IGROV1 ovarian = system: IGROV1 ovarian
EKVX NSCLC = system: EKVX NSCLC
A498 renal = system: A498 renal
LXFL 529 NSCLC = system: LXFL 529 NSCLC
DMS 273 small cell lung = system: DMS 273 small cell lung
RXF 393 renal = system: RXF 393 renal
SK-MEL-28 melanoma = system: SK-MEL-28 melanoma
U251 CNS = system: U251 CNS
M14 melanoma = system: M14 melanoma
MOLT-4 leukemia = system: MOLT-4 leukemia
SK-OV-3 ovarian = system: SK-OV-3 ovarian
OVCAR-5 ovarian = system: OVCAR-5 ovarian
UACC-257 melanoma = system: UACC-257 melanoma
SN12C renal = system: SN12C renal
HOP-92 NSCLC = system: HOP-92 NSCLC
SK-MEL-5 melanoma = system: SK-MEL-5 melanoma
KM12 colon = system: KM12 colon
NCI-H522 lung = system: NCI-H522 lung
NCI-H226 lung = system: NCI-H226 lung
K-562 leukemia = system: K-562 leukemia
MALME-3M melanoma = system: MALME-3M melanoma
A549 NSCLC = system: A549 NSCLC
COLO 205 colon = system: COLO 205 colon
CAKI-1 renal = system: CAKI-1 renal
LOX IMVI melanoma = system: LOX IMVI melanoma
SNB-19 CNS = system: SNB-19 CNS
HCT-15 colon = system: HCT-15 colon
SK-MEL-2 melanoma = system: SK-MEL-2 melanoma
NCI-H460 lung = system: NCI-H460 lung

COC(=O)c1cc(Br)c(Br)n1C
TGI (786-0 renal): > 100 µM | TGI (ACHN renal): > 100 µM | TGI (SF-268 CNS): > 100 µM | TGI (UACC-62 melanoma): > 100 µM | TGI (HOP-18 NSCLC): > 100 µM | TGI (RXF-631 renal): > 100 µM | TGI (SF-539 CNS): > 100 µM | TGI (SW-620 colon): > 100 µM | TGI (UO-31 renal): > 100 µM | TGI (HOP-62 NSCLC): > 100 µM | TGI (DLD-1 colon): > 100 µM | TGI (SNB-75 CNS): > 100 µM | TGI (SR leukemia): > 100 µM | TGI (DMS 114 small cell lung): > 100 µM | TGI (CCRF-CEM leukemia): > 100 µM | TGI (HCC-2998 colon): > 100 µM | TGI (HCT-116 colon): > 100 µM | TGI (HL-60(TB) leukemia): > 100 µM | TGI (OVCAR-3 ovarian): > 100 µM | TGI (TK-10 renal): > 100 µM | TGI (M19-MEL melanoma): > 100 µM | TGI (OVCAR-4 ovarian): > 100 µM | TGI (KM20L2 colon): > 100 µM | TGI (SNB-78 CNS): > 100 µM | TGI (OVCAR-8 ovarian): > 100 µM | TGI (XF 498 CNS): > 100 µM | TGI (HT29 colon): > 100 µM | TGI (SF-295 CNS): > 100 µM | TGI (NCI-H23 lung): > 100 µM | TGI (IGROV1 ovarian): > 100 µM | TGI (EKVX NSCLC): > 100 µM | TGI (A498 renal): > 100 µM | TGI (LXFL 529 NSCLC): > 100 µM | TGI (DMS 273 small cell lung): > 100 µM | TGI (RXF 393 renal): > 100 µM | TGI (SK-MEL-28 melanoma): > 100 µM | TGI (U251 CNS): > 100 µM | TGI (M14 melanoma): > 100 µM | TGI (MOLT-4 leukemia): > 100 µM | TGI (SK-OV-3 ovarian): > 100 µM | TGI (OVCAR-5 ovarian): > 100 µM | TGI (UACC-257 melanoma): > 100 µM | TGI (SN12C renal): > 100 µM | TGI (HOP-92 NSCLC): > 100 µM | TGI (SK-MEL-5 melanoma): > 100 µM | TGI (KM12 colon): > 100 µM | TGI (NCI-H522 lung): > 100 µM | TGI (NCI-H226 lung): > 100 µM | TGI (K-562 leukemia): > 100 µM | TGI (MALME-3M melanoma): > 100 µM | TGI (A549 NSCLC): > 100 µM | TGI (COLO 205 colon): > 100 µM | TGI (CAKI-1 renal): > 100 µM | TGI (LOX IMVI melanoma): > 100 µM | TGI (SNB-19 CNS): > 100 µM

CC(C)=CCc1c(O)cc(O)c2c1OC(c1ccc(O)cc1)C(O)C2=O (stereo unspecified)
TGI (ACHN renal): 82.9 µM | TGI (SF-268 CNS): > 100 µM | TGI (UACC-62 melanoma): 46.8 µM | TGI (HOP-18 NSCLC): 43.4 µM | TGI (RXF-631 renal): 97.9 µM | TGI (SF-539 CNS): 35.5 µM | TGI (SW-620 colon): > 100 µM | TGI (UO-31 renal): 90.4 µM | TGI (HOP-62 NSCLC): 36.3 µM | TGI (DLD-1 colon): > 100 µM | TGI (SNB-75 CNS): 99 µM | TGI (DMS 114 small cell lung): > 100 µM | TGI (HCC-2998 colon): 56.3 µM | TGI (HCT-116 colon): > 100 µM | TGI (OVCAR-3 ovarian): 36.7 µM | TGI (TK-10 renal): 60.6 µM | TGI (M19-MEL melanoma): > 100 µM | TGI (OVCAR-4 ovarian): > 100 µM | TGI (HCT-15 colon): 55.7 µM | TGI (KM20L2 colon): 32.5 µM | TGI (SNB-78 CNS): 95.3 µM | TGI (OVCAR-8 ovarian): > 100 µM | TGI (XF 498 CNS): 70.3 µM | TGI (HT29 colon): 40.3 µM | TGI (SF-295 CNS): 67 µM | TGI (NCI-H23 lung): 45.8 µM | TGI (IGROV1 ovarian): 88.9 µM | TGI (EKVX NSCLC): 56.3 µM | TGI (SK-MEL-2 melanoma): 50.9 µM | TGI (A498 renal): > 100 µM | TGI (LXFL 529 NSCLC): 86.9 µM | TGI (RXF 393 renal): 49.9 µM | TGI (SK-MEL-28 melanoma): 50.7 µM | TGI (U251 CNS): 74.5 µM | TGI (M14 melanoma): 57.3 µM | TGI (SK-OV-3 ovarian): > 100 µM | TGI (OVCAR-5 ovarian): 61.1 µM | TGI (UACC-257 melanoma): > 100 µM | TGI (SN12C renal): > 100 µM | TGI (HOP-92 NSCLC): 39.7 µM | TGI (SK-MEL-5 melanoma): 41.4 µM | TGI (KM12 colon): 58.9 µM | TGI (NCI-H522 lung): 42 µM | TGI (NCI-H460 lung): 77.3 µM | TGI (NCI-H226 lung): 56.7 µM | TGI (K-562 leukemia): > 100 µM | TGI (MALME-3M melanoma): 70.4 µM | TGI (A549 NSCLC): 80.8 µM | TGI (COLO 205 colon): > 100 µM | TGI (LOX IMVI melanoma): 35.7 µM | TGI (SNB-19 CNS): > 100 µM
